Test results reported in patent US9902696B2, “1,4-substituted piperidine derivatives” (Cephalon, Inc., priority 2015, dated 2018).
pIC50: −log10 of the molar value. Where a name gives a salt, the structure may show the parent alone. Read-outs that look alike come from different tables or passages of the source.

Molecular target: T1, recombinant human baculovirus-expressed GST-tagged FASN (Homo sapiens, UniProt P49327)
T1 construct: GST
Test: FASN enzyme activity assay, fluorescence-based detection of CoA with CPM
Format: biochemical
Conditions: 5 nM FASN, 150 μM NADPH, 10 μM acetyl-CoA, 25 μM malonyl-CoA, 90 minutes incubation
Text: FASN Enzyme activity may be determined by detecting coenzyme A (CoA), a product of FASN-catalyzed synthesis of palmitate from acetyl-CoA and malonyl-CoA with NADPH as a cofactor. The assay is fluorescence-based and measures the interaction of free CoA with 7-diethylamino-3-(4′-malemimidylphenyl)-4-methylcoumarin (CPM; Life Technologies, CA) as described in Chung et al (2008). The coumarin derivative CPM contains a thiol-reactive maleimide that becomes fluorescent upon interaction with the sulfhydryl group of CoA.
For the example compounds described herein, the reaction was performed in 384-well low volume non-binding plates (Corning, N.Y.) using recombinant human baculovirus-expressed GST-tagged FASN. The 20-μL assay mixture contained 50 mM HEPES (pH 7.5), 5 nM FASN, 150 μM NADPH (Sigma, St. Louis, Mo.), 10 μM acetyl-CoA (Sigma), 25 μM malonyl-CoA (Sigma) and test compound [diluted in dimethyl sulfoxide (DMSO); 0.5% DMSO final in assay after 100 nL addition]. See, Chung et al.; “A fluorescence-based thiol quantification assay for ultra-high-throughput screening for inhibitors of coenzyme A production,” Assay Drug Dev Tech 2008; 6:361-374.
The reaction was initiated by adding malonyl-CoA, followed by incubation for 90 minutes at […]. A stock solution of the CPM reagent was prepared in DMSO at […] and stored at […]. To detect CoA produced in the FASN reaction, the CPM stock was diluted to […] in 70% ethanol and added at 4 μL/well to the assay plate. The reaction mixture was then incubated for 30 minutes. Fluorescence was measured using the EnVision™ 2102 multi-label plate reader (PerkinElmer, Waltham, Mass.) utilizing a general dual mirror, a 390 nm excitation filter and a 530 nm emission filter. Data analysis was performed using ActivityBase (IDBS, Guilford, UK). IC50 values were calculated by plotting the percent inhibition versus log 10 of the concentration of the compound, and fitting to the nonlinear regression sigmoidal dose-response (variable slope) equation in XLFit (IDBS).

[1] = read-out: IC50 data for Compounds of Formulae I-V/V(a): Activity

T1 sequence (P49327 whole entry): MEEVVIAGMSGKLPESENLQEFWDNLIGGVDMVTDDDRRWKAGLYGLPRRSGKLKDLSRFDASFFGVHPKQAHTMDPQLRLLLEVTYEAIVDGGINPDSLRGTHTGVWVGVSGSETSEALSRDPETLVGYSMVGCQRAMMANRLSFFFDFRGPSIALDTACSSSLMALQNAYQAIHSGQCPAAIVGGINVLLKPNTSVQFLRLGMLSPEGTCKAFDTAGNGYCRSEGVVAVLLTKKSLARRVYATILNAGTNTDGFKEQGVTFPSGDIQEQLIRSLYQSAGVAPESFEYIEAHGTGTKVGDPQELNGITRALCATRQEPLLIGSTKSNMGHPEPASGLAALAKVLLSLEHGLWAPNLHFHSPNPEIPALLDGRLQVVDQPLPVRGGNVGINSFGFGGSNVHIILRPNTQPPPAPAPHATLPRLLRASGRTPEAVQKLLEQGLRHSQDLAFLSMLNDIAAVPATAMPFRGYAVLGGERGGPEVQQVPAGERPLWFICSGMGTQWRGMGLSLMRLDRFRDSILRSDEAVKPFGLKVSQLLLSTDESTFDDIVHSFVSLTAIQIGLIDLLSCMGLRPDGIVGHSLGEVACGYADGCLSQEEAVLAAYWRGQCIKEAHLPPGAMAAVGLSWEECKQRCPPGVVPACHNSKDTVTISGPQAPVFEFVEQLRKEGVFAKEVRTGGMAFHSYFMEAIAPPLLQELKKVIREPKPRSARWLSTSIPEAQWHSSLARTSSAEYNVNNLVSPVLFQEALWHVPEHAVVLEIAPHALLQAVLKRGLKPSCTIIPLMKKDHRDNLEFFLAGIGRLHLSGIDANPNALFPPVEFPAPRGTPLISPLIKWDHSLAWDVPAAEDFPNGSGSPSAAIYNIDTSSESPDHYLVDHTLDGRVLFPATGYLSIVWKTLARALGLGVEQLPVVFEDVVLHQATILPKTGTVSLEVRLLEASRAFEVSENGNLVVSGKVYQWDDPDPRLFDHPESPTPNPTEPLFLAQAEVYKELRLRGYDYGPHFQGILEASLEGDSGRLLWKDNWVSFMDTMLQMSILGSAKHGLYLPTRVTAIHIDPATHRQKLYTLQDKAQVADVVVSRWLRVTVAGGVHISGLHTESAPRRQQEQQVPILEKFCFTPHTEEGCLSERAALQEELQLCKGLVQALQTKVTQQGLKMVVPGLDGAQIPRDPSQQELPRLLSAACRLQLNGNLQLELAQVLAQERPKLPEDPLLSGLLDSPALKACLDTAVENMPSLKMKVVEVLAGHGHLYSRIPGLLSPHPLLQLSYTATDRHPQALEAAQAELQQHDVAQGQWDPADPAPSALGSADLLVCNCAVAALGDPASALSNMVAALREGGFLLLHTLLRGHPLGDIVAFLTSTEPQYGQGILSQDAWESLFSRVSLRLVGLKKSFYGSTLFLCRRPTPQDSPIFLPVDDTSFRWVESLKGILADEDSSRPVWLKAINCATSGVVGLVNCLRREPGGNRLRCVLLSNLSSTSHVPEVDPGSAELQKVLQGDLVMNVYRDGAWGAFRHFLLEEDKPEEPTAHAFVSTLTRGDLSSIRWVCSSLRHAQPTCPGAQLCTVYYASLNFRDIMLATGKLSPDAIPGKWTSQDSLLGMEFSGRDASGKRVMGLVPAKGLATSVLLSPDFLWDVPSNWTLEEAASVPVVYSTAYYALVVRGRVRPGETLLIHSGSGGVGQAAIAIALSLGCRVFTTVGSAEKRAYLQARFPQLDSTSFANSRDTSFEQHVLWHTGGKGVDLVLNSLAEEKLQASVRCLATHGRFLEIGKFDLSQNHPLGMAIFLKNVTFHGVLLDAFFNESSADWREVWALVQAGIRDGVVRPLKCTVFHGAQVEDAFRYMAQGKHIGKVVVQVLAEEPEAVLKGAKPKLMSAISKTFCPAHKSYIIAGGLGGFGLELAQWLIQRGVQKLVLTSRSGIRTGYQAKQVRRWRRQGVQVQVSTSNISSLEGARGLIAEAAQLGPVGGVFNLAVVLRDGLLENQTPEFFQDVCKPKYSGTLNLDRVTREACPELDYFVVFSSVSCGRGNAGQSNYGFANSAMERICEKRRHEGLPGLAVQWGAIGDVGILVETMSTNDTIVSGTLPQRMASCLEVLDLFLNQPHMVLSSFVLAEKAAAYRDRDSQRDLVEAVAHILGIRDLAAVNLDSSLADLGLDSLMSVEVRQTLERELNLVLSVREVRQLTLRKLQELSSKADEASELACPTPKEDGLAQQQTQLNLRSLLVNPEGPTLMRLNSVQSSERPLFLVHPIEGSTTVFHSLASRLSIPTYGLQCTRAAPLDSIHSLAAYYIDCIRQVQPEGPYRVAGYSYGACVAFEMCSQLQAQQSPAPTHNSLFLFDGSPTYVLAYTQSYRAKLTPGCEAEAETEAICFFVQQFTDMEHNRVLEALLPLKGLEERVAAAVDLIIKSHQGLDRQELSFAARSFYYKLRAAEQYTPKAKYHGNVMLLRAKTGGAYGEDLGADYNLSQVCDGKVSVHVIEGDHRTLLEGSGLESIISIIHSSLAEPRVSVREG

Cc1c(-c2ccc(O[C@H]3C[C@H]4CC[C@@H](C3)N4C(=O)C3CC3)cc2)ccc2cccnc12 [Example 370, Cyclopropyl-{endo-3-[4-(8-methylquinolin-7-yl)-phenoxy]-8-aza-bicyclo-[3.2.1]oct-8-yl}-methanone, HCl]
pIC50 [1]: 6.00 to 7.00

Cc1c(-c2ccc(OC3CCN(C(=O)C4(C)CC4)CC3)cc2)ccc2cccnc12 [Example 320, (1-Methylcyclopropyl)-{4-[4-(8-methyl-quinolin-7-yl)-phenoxy]-piperidin-1-yl}-methanone]
pIC50 [1]: 7.00 to 9.00

O=C(C1CCC1)N1CCC(Oc2ccc(-c3cccc(-c4ccccn4)c3F)cc2)CC1 [Example 398, Cyclobutyl-[4-(2′-fluoro-3′-pyridin-2-yl-biphenyl-4-yloxy)-piperidin-1-yl]-methanone HCl]
pIC50 [1]: 5.00 to 6.00

O=C(CO)N1CCC(Oc2ccc(-c3cnc4ccccc4c3)cc2)CC1 [Example 110, 2-Hydroxy-1-[4-(4-quinolin-3-yl-phenoxy)-piperidin-1-yl]-ethanone, 2HCl]
pIC50 [1]: 5.00 to 6.00

CCNC(=O)N1CCC(Oc2ccc(-c3ccn4ccnc4c3)cc2)CC1 [Example 628, N-Ethyl-4-(4-imidazo[1,2-a]pyridin-7-ylphenoxy)piperidine-1-carboxamide, HCl]
pIC50 (read-out: IC50 data for Additional Compounds of Formulae I-V(a): Activity): 7.00 to 9.00

CCC(=O)N1CCC(Oc2ccc(-c3ccc4cccnc4c3OC)cc2)CC1 [Example 273, 1-{4-[4-(8-Methoxyquinolin-7-yl)-phenoxy]-piperidin-1-yl}-propan-1-one, TFA salt]
pIC50 [1]: 7.00 to 9.00

O=C(C1CC1)N1CCC(Oc2ccc(-c3ccc4c(Cl)nccc4c3)cc2)CC1 [Example 420, {4-[4-(1-Chloroisoquinolin-6-yl)-phenoxy]-piperidin-1-yl}-cyclopropyl-methanone]
pIC50 [1]: 6.00 to 7.00

O=C(C1CC(F)(F)CO1)N1CCC(Oc2ccc(-c3cnc4ccccc4c3)cc2)CC1 (centres unmarked) [Example 163, (4,4-Difluorotetrahydrofuran-2-yl)-[4-(4-quinolin-3-yl-phenoxy)-piperidin-1-yl]-methanone, HCl]
pIC50 [1]: 6.00 to 7.00

CCC(=O)N1CCC(Oc2ccc(-c3ccc4cccnc4c3C)cc2)CC1C (mixture of isomers) [Example 364, 1-{2-Methyl-4-[4-(8-methylquinolin-7-yl)-phenoxy]-piperidin-1-yl}-propan-1-one, HCl]
pIC50 [1]: 6.00 to 7.00

Cc1ccc2cc(-c3ccc(OC4CCN(C(=O)[C@H]5CCCO5)CC4)cc3)cnc2c1 [Example 482]
pIC50 [1]: 7.00 to 9.00

CC(C)C(=O)N1CCC(Oc2ccc(-c3ccc4occc4c3)cc2)CC1 [Example 9, 1-[4-(4-Benzofuran-5-yl-phenoxy)-piperidin-1-yl]-2-methyl-propan-1-one]
pIC50 [1]: 5.00 to 6.00

O=C(c1cccc(-c2nc3ccccc3[nH]2)c1)N1CCC(Oc2ccc(-c3cnc4ccccc4c3)cc2)CC1 [Example 130, [3-(1H-Benzimidazol-2-yl)-phenyl]-[4-(4-quinolin-3-yl-phenoxy)-piperidin-1-yl]-methanone, HCl]
pIC50 [1]: 5.00 to 6.00

Cc1cccc2ncc(-c3ccc(OC4CCN(C(=O)C5CC5)CC4)cc3)cc12 [Example 461, Cyclopropyl-{4-[4-(5-methyl-quinolin-3-yl)-phenoxy]-piperidin-1-yl}-methanone, HCl]
pIC50 [1]: 6.00 to 7.00

O=C(C1CC1)N1CCC(Oc2ccc(-c3ccc(Oc4ccccc4)nc3)cc2)CC1 [Example 390, Cyclopropyl-{4-[4-(6-phenoxy-pyridin-3-yl)-phenoxy]-piperidin-1-yl}-methanone]
pIC50 [1]: 5.00 to 6.00

CCC(=O)N1CCC(Oc2ccc(-c3cnc4ccccc4c3)c(C)c2)CC1 [Example 207, 1-[4-(3-Methyl-4-quinolin-3-yl-phenoxy)-piperidin-1-yl]-propan-1-one]
pIC50 [1]: 6.00 to 7.00

CONC(=O)N1CCC(Oc2ccc(-c3ccc4cccnc4c3OC)cc2)CC1 [Example 131, N-Methoxy-4-[4-(8-methoxy-7-quinolyl)phenoxy]piperidine-1-carboxamide, HCl]
pIC50 [1]: 7.00 to 9.00

CCC(=O)N1CCC(Oc2ccc(-c3cncc(Oc4ccccc4)c3)cc2)CC1 [Example 397, 1-{4-[4-(5-Phenoxypyridin-3-yl)-phenoxy]-piperidin-1-yl}-propan-1-one, TFA]
pIC50 [1]: 5.00 to 6.00
